Results from patent US20190183948A1, “USE OF BCL-XL INHIBITOR AND ONCOLYTIC VIRUS IN PREPARATION OF ANTITUMOR DRUG” (GUANGZHOU VIROTECH PHARMACEUTICAL CO., LTD., priority 2016, published 2019).

Experiments:
Mcl-1 = Mcl-1 (Homo sapiens, UniProt Q07820); settings: cited from earlier work
[1] = tested on: LoVo transplantable tumor; assay: Transplantable tumor growth in nude mice, LoVo (Example 4); assay type: in vivo, BALB/c nude mice; settings: LoVo s.c. in nude mice; ABT-263 i.p. 10 mg/kg/d, M1 tail vein 2×10^6 PFU/time, three injections
Description: (§1) This experiment was designed in a randomized, single-blind way. 5×10^6 Hep3B or LoVo cells were subcutaneously injected into dorsa of the 4-week-aged BALB/c nude mice.
(§2) The weight, length and width of the tumor were measured every two days, and the volume of the tumor was calculated according to the formula: (length×width 2)/2. After the volume of the tumor was measured, One-way ANOVA statistics was carried out, wherein *** represented p<0.001 and **represented p<0.01.

[2] = tested on: Hep3B transplantable tumor; assay: Transplantable tumor growth in nude mice, Hep3B (Example 4); assay type: in vivo, BALB/c nude mice; settings: Hep3B s.c. in nude mice; ABT-263 i.p. 10 mg/kg/d, M1 tail vein 2×10^6 PFU/time, three injections
Description: as §1, §2

Bcl-w = molecular target: T1, Bcl-w (Homo sapiens, UniProt Q92843); settings: cited from earlier work
T1 sequence (Q92843 1-193): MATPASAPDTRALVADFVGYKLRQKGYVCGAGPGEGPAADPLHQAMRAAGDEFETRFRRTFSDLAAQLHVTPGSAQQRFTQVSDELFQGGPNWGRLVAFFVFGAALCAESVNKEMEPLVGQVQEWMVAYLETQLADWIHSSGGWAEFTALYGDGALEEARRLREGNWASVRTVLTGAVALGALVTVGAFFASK

[3] = tested on: human liver cancer cell Hep3B; assay: MTT survival rate (Example 2), Hep3B; assay type: cell-based; settings: 48 hours, inhibitor 100 nM, M1 MOI=0.001
Description: a) Inoculation of cells and administration treatment: The cells in the exponential growth phase were selected and added into a DMEM complete culture medium (containing 10% fetal bovine serum and 1% penicillin/streptomycin (Life Technologies)) to prepare a cell suspension. The cells were inoculated into a 96-well culture plate at a density of 4×10^3/well. After 12 hours, the cells were completely adherent to the wall. […] The dose was used as follows: M1 virus that infected the cells; different dose gradient set for M1 virus. b) Reaction of MTT (3-(4,5-dimethylthiazol-2-yl)-2,5-diphenyltetrazolium bromide or methyl thiazolyl tetrazolium) with succinate dehydrogenase in the cells: 48 hours after culture, 20 μl of MIT (5 mg/ml) was added into each well, and was incubated for further 4 hours. After incubation, granular blue and purple formazan crystals formed in the living cells were observed by microscopic examination. c) Dissolution of formazan particles formed in the cells was accomplished as follows: the supernatant was carefully sucked off, and 100 μl/well of DMSO was added to dissolve the formed crystals, and was shaken in a microoscillator for 5 minutes. Then, the optical density (OD value) of each well was detected in an enzyme linked detector at a wavelength of 570 nm. The experiments were repeated for 3 times for each group. […]

A1 = molecular target: T2, A1 (Homo sapiens, UniProt Q16548); settings: cited from earlier work
T2 sequence (Q16548 1-175): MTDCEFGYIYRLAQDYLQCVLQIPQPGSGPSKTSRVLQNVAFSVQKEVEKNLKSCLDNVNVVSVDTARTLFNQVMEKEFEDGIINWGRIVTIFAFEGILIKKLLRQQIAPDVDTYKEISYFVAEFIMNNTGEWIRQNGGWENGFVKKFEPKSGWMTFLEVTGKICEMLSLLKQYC

Bfl-1 = molecular target: T3, Bfl-1 (Homo sapiens, UniProt Q16548); settings: cited from earlier work
T3 sequence (Q16548 1-175): T2 sequence (Q16548 1-175)

Bcl-B = molecular target: T4, Bcl-B (Homo sapiens, UniProt Q9HD36); settings: cited from earlier work
T4 sequence (Q9HD36 1-204): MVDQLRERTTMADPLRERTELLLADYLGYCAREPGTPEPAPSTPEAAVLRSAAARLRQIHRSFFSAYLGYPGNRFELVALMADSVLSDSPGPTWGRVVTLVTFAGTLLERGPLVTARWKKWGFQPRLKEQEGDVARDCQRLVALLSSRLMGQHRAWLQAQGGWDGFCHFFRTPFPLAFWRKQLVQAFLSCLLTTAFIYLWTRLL

Sequence of Mcl-1 (Q07820 whole entry, species assumed): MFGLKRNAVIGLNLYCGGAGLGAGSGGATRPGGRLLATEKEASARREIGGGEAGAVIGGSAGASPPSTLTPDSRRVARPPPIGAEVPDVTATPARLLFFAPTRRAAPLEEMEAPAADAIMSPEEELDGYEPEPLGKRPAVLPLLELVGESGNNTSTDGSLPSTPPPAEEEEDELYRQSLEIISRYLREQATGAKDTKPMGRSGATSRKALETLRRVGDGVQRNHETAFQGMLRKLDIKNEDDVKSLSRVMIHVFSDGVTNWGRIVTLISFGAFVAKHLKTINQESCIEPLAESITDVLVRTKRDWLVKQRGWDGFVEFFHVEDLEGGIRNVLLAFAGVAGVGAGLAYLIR

CC1(C)CCC(CN2CCN(c3ccc(C(=O)NS(=O)(=O)c4ccc(NCC5CCOCC5)c([N+](=O)[O-])c4)c(Oc4cnc5[nH]ccc5c4)c3)CC2)=C(c2ccc(Cl)cc2)C1 [ABT-199]
binding / inhibitory effect on Mcl-1 (Mcl-1): no activity

CC1(C)CCC(c2ccc(Cl)cc2)=C(CN2CCN(c3ccc(C(=O)NS(=O)(=O)c4ccc(N[C@H](CCN5CCOCC5)CSc5ccccc5)c(S(=O)(=O)C(F)(F)F)c4)cc3)CC2)C1 [ABT-263]
tumor volume vs control group [1]: slight shrinkage of the tumor volume
tumor volume vs control group [2]: slight shrinkage of the tumor volume
Ki (Bcl-w): ≤ 1 nM
survival rate of the tumor cells [3]: 88.8%
binding to A1 (A1): binds weakly
binding / inhibitory effect on Mcl-1 (Mcl-1): binds weakly

CN(C)CC[C@H](CSc1ccccc1)Nc1ccc(S(=O)(=O)NC(=O)c2ccc(N3CCN(Cc4ccccc4-c4ccc(Cl)cc4)CC3)cc2)cc1[N+](=O)[O-] [ABT-737]
inhibitory effect on Bfl-1 (Bfl-1): no inhibitory effect
inhibitory effect on Bcl-B (Bcl-B): no inhibitory effect
binding / inhibitory effect on Mcl-1 (Mcl-1): no inhibitory effect
